Reference: PubChem BioAssay AID1963978 (Molecular Pharmacology Branch, DTP, NCI, 2024)

Tested on: 616215-338-R-J1-PDC spheroids with HUVEC/MSC, viability
Test: Anticancer human tumor 616215-338-R-J1-PDC patient-derived colon adenocarcinoma cell line growth inhibition [PI3K]
Conditions: for IC50: curve of first compound; for viability, T/C: stronger effect = lower value
Source text: Combinatorial screen of targeted agents with the PI3K inhibitors inavolisib, alpelisib, duvelisib, and copanlisib in multi-cell type tumor spheroids
A high-throughput screen of multi-cell type tumor spheroids was designed to identify active combinations of targeted small molecules and PI3K pathway inhibitors. Complex spheroids include a stromal component modeled by human endothelial cells (HUVEC) and fibroblasts modeled by human mesenchymal stem cells (MSCs). The concentration ranges selected for each drug and investigational agent were based upon clinically achievable concentrations if the clinical Cmax of the agent was known.
Compounds. The drugs and investigational agents: inavolisib (NSC800729), alpelisib (NSC765974), duvelisib (NSC772469), copanlisib (NSC816437), ipatasertib (NSC767898), afuresertib (NSC778305), talazoparib (NSC767125), sapanisertib (NSC764658), selumetinib (NSC741078), tovorafenib (DAY101, NSC766906), vemurafenib (NSC761431), ravoxertinib (NSC781343), sotorasib (NSC818433), MRTX1133 (NSC 836407), abemaciclib (NSC 768073), palbociclib (NSC758247), venetoclax (NSC 766270), SY5609 (NSC837396), enzalutamide (NSC755605), and darolutamide (NSC825331), were obtained from the National Cancer Institute (NCI) Developmental Therapeutics Program Chemical Repository. The FDA-approved anticancer drug set is available from the NCI Developmental Therapeutics Program. […] The stock solutions were prepared in dimethyl sulfoxide (DMSO, Sigma-Aldrich, St. Louis, MO, cat. D2650) at 800-fold the tested concentration and stored at -70 degrees C prior to their use. All drugs and investigational agents were tested over a range starting from a high concentration at or near the clinical Cmax and decreasing in half-log increments. If the clinical Cmax for an agent had not been determined, the highest concentration tested was 10 microM.
Cell Culture. All cells were maintained in an incubator at 37 degrees C and 5% CO2 with 95% humidity. The PDC lines were cultured according to standard operating procedures established by the NCI PDMR (https://pdmr.cancer.gov/sops/default.htm). All PDCs were thawed and cultured in Matrigel-coated flasks prepared with a working solution of 1X Ham's F-12 nutrient mix, without supplementation (Invitrogen, Waltham, MA, cat. 11765054), 100 U/mL penicillin-streptomycin (Invitrogen, cat. 15140122), and 2.5% Matrigel (Corning Inc., Corning, NY, cat. 354248) for the first three passages. The 354836-022-R-J1-PDC, 475296-252-R-J1-PDC, and 997726-040-R-J2-PDC lines were cultured in 6A media, which includes advanced DMEM/F-12 (Thermo Fisher Scientific, cat. 12634028), 10 mM HEPES (Thermo Fisher Scientific, cat. 15630080), 1X GlutaMAX supplement (Thermo Fisher Scientific, cat. 35050061), 0.1 mg/mL primocin (InvivoGen, San Diego, CA, cat. ant-pm-2), 10% defined fetal bovine serum, heat inactivated (HyClone Laboratories Inc., Logan, UT, cat. SH30070.03HI), 50% L-WRN conditioned media (ATCC, cat. CRL-3276), 1.25 mM N-Acetyl-L-cysteine (Sigma-Aldrich, cat. A9165), 10 mM nicotinamide (Sigma-Aldrich, cat. N0636), 1X B-27 supplement (Thermo Fisher Scientific, cat. 17504044), 1X N-2 supplement (Thermo Fisher Scientific, cat. 17502048), and 10 microM Y-27632 dihydrochloride (Tocris Bioscience, Bristol, United Kingdom, cat. 1254). The 624824-186-R-J2-PDC line was cultured in 6C/Colon 1B media, which includes all 6A media components plus 50 ng/mL human EGF recombinant protein (Thermo Fisher Scientific, cat. PHG0311). […]

[1] = second compound 0.00316 µM, first compound 0.0316 µM
[2] = second compound 0.00316 µM, first compound 0.1 µM
[3] = second compound 0.00316 µM, first compound 0.316 µM
[4] = second compound 0.00316 µM, first compound 1 µM
[5] = second compound 0.00316 µM, first compound 3.16 µM
[6] = second compound 0.00316 µM, first compound 10 µM
[7] = second compound 0.01 µM, first compound 0.0316 µM
[8] = second compound 0.01 µM, first compound 0.1 µM
[9] = second compound 0.01 µM, first compound 0.316 µM
[10] = second compound 0.01 µM, first compound 1 µM
[11] = second compound 0.01 µM, first compound 3.16 µM
[12] = second compound 0.01 µM, first compound 10 µM
[13] = second compound 0.0316 µM, first compound 0.0316 µM
[14] = second compound 0.0316 µM, first compound 0.1 µM
[15] = second compound 0.0316 µM, first compound 0.316 µM
[16] = second compound 0.0316 µM, first compound 1 µM
[17] = second compound 0.0316 µM, first compound 3.16 µM
[18] = second compound 0.0316 µM, first compound 10 µM
[19] = second compound 0.1 µM, first compound 0.0316 µM
[20] = second compound 0.1 µM, first compound 0.1 µM
[21] = second compound 0.1 µM, first compound 0.316 µM
[22] = second compound 0.1 µM, first compound 1 µM
[23] = second compound 0.1 µM, first compound 3.16 µM
[24] = second compound 0.1 µM, first compound 10 µM
[25] = second compound 0.316 µM, first compound 0.0316 µM
[26] = second compound 0.316 µM, first compound 0.1 µM
[27] = second compound 0.316 µM, first compound 0.316 µM
[28] = second compound 0.316 µM, first compound 1 µM
[29] = second compound 0.316 µM, first compound 3.16 µM
[30] = second compound 0.316 µM, first compound 10 µM
[31] = second compound 1 µM, first compound 0.0316 µM
[32] = second compound 1 µM, first compound 0.1 µM
[33] = second compound 1 µM, first compound 0.316 µM
[34] = second compound 1 µM, first compound 1 µM
[35] = second compound 1 µM, first compound 3.16 µM
[36] = second compound 1 µM, first compound 10 µM
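Note: spheroids exposed to agents for seven days before the viability read.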

CC(Cn1ccc(-c2ccc(C#N)c(Cl)c2)n1)NC(=O)c1cc(C(C)O)[nH]n1 (centres undefined) + CC(Nc1ccc2c(c1)OCCn1cc(N3C(=O)OCC3C(F)F)nc1-2)C(N)=O
IC50 (second compound 0.00316 µM): > 10 µM | IC50 (second compound 0.01 µM): > 10 µM | IC50 (second compound 0.0316 µM): > 10 µM | IC50 (second compound 0.1 µM): > 10 µM | IC50 (second compound 0.316 µM): > 10 µM | IC50 (second compound 1 µM): > 10 µM | viability, T/C [1]: 90.8% | viability, T/C [2]: 94% | viability, T/C [3]: 91.2% | viability, T/C [4]: 93.6% | viability, T/C [5]: 92.4% | viability, T/C [6]: 94.3% | viability, T/C [7]: 89.3% | viability, T/C [8]: 105% | viability, T/C [9]: 102% | viability, T/C [10]: 92.4% | viability, T/C [11]: 92.3% | viability, T/C [12]: 104% | viability, T/C [13]: 94.4% | viability, T/C [14]: 105% | viability, T/C [15]: 90.1% | viability, T/C [16]: 101% | viability, T/C [17]: 96.3% | viability, T/C [18]: 101% | viability, T/C [19]: 107% | viability, T/C [20]: 88% | viability, T/C [21]: 96.8% | viability, T/C [22]: 102% | viability, T/C [23]: 105% | viability, T/C [24]: 94.4% | viability, T/C [25]: 109% | viability, T/C [26]: 104% | viability, T/C [27]: 107% | viability, T/C [28]: 101% | viability, T/C [29]: 101% | viability, T/C [30]: 110% | viability, T/C [31]: 101% | viability, T/C [32]: 99.8% | viability, T/C [33]: 104% | viability, T/C [34]: 103% | viability, T/C [35]: 99.4% | viability, T/C [36]: 97.8%

Cn1nccc1Nc1nccc(-c2ccn(C(CO)c3ccc(Cl)c(F)c3)c(=O)c2)n1 (centres undefined) + CC(Nc1ccc2c(c1)OCCn1cc(N3C(=O)OCC3C(F)F)nc1-2)C(N)=O
IC50 (second compound 0.00316 µM): 4.61 µM | IC50 (second compound 0.01 µM): 3.92 µM | IC50 (second compound 0.0316 µM): 2.32 µM | IC50 (second compound 0.1 µM): 1.15 µM | IC50 (second compound 0.316 µM): 0.986 µM | IC50 (second compound 1 µM): 1.24 µM | viability, T/C [1]: 94.1% | viability, T/C [2]: 87% | viability, T/C [3]: 74.5% | viability, T/C [4]: 71.3% | viability, T/C [5]: 53.8% | viability, T/C [6]: 40.1% | viability, T/C [7]: 100% | viability, T/C [8]: 97.6% | viability, T/C [9]: 81.8% | viability, T/C [10]: 71.1% | viability, T/C [11]: 50.7% | viability, T/C [12]: 41% | viability, T/C [13]: 86.8% | viability, T/C [14]: 103% | viability, T/C [15]: 87.7% | viability, T/C [16]: 58.3% | viability, T/C [17]: 54.2% | viability, T/C [18]: 38.4% | viability, T/C [19]: 96.8% | viability, T/C [20]: 91.6% | viability, T/C [21]: 78.1% | viability, T/C [22]: 50.8% | viability, T/C [23]: 38.8% | viability, T/C [24]: 33% | viability, T/C [25]: 92.5% | viability, T/C [26]: 100% | viability, T/C [27]: 66.8% | viability, T/C [28]: 52.6% | viability, T/C [29]: 37.4% | viability, T/C [30]: 29.1% | viability, T/C [31]: 96.8% | viability, T/C [32]: 93.7% | viability, T/C [33]: 72.5% | viability, T/C [34]: 44.9% | viability, T/C [35]: 40.5% | viability, T/C [36]: 6.88%
